Converted amounts (≈) assume the structure as drawn.
Assays:
perforin = test system: perforin; parameters: method as in earlier work; details: compound concentration 100 µM; cited from earlier work
[1] = Plasma stability, mouse plasma; format: in vitro ADME; details: % parent remaining at 24 h, 37 °C
Description: (§1) Preliminary stability studies were carried out by incubation in human or mouse plasma at 37 °C with the percentage parent remaining measured at 24 h (Table 2). […] In mouse plasma the ratio of open to closed is 50:50%, while in human plasma this shifts to 90:10 due to the strong affinity of human serum albumin for the ring-opened form.[20] It is likely that the same phenomenon is operating in the present case and while not necessarily an issue for mouse studies, will need to be addressed in future work.
(§2) Incubation method - Mouse (CD-1, male) and human (pooled) plasma pH was adjusted to 7.4 with either 1M phosphoric acid or sodium hydroxide. Plasma was spiked with 100 uM of test compounds and divided into two parts; one part was immediately transferred to -80 °C (control), and the second part was incubated at 37 °C at 24 h.
(§3) At the end of the study duration, samples were transferred to -80 °C until ready to analyse by HPLC-DAD. On the day of analysis, control and incubated samples were thawed on wet ice and mixed.
(§4) Sample treatment for HPLC - 20 uL of samples were mixed with 80 uL (1:4 v/v) ice cold acetonitrile to precipitate the plasma proteins, centrifuged at 13,000 rpm for 5 min to obtain the clear supernatant. The supernatant was diluted with 0.01% formic acid– water (1:2 v/v) and 50 uL was injected onto the HPLC system (Agilent).
(§5) Calculation: The % loss was calculated based on peak area using the following formula: (peak area time “0”- peak area time “24h”)/peak area time “0” multiplied by 100. % Remaining = 100 - % loss.

[2] = Plasma stability, human plasma; format: in vitro ADME; details: % parent remaining at 24 h, 37 °C
Description: as §1, §2, §3, §4, §5

Solubility in water = details: water
[3] = test system: perforin delivered by KHYG-1 NK cells; assay: KHYG-1 cytotoxicity assay: lysis of K562 target cells by KHYG-1 NK cells (51Cr release); format: cell-based, human; details: for inhibition at 20 µM: Homo sapiens, KHYG-1 NK, read-out: KHYG-1 inhibition (% at 20 μM), compound 20 μM; for Activity against perforin delivered by whole KHYG-1 NK cells (in words): whole human NK cells, K562 targets
Description: (§6) The compounds were then evaluated for their ability to block the effect of perforin delivered by whole KHYG-1 NK cells (Table 2). Employing whole NK cells is a more rigorous model of conditions in vivo than the use of isolated recombinant protein since effector cell identification of the labelled target cell and formation of an immune synapse are required for perforin release. […] After co-incubation of inhibitor with KHYG-1 NK cells in medium for 30 min at room temperature, ^51Cr-labelled K562 leukaemia target cells were added and cell lysis evaluated after 4 h incubation at 37 °C by measuring ^51Cr release. […] Viable and dead cells were counted and percent viability calculated based on total cell count (for further details see Supplementary data). […] For the purposes of this work, compounds are classified as toxic if NK cell viability falls below 70%. This is due to the importance of CTLs and NK cells in the overall immunological response which means that it is essential that any pharmacological intervention allows rapid recovery of these cytotoxic effector cells for normal immunological function.
KHYG-1 cells were washed and re-suspended in RPMI + 0.1% BSA at 4 × 10^5 cells/mL, and an amount of 50 μL of KHYG-1 cells was dispensed to each well of a 96-well V-bottom plate. RPMI (50 μL) + 0.1% BSA or 10% (final concentration) of serum was added to each well. Then test compounds were added to KHYG-1 cells at various concentrations up to 20 μM and incubated at room temperature for […]. 1 × 10^6 K562 target cells were labelled with 75 μCi ^51Cr in 200 μL of RPMI for 90 min at 37 °C. Cells were washed as described above and re-suspended in 5 mL of RPMI + 0.1% BSA. An amount of 50 μL of ^51Cr labelled K562 leukaemia target cells was added to each well of the KHYG-1 plate (effector/target 2:1) and incubated at 37 °C for 4 h. ^51Cr release was assayed using a Skatron harvesting press and radioactivity estimated on a Wallac Wizard 1470 automatic γ counter (Turku, Finland). The percentage of specific cytotoxicity was calculated using the following formula:
% specific lysis = […]
(maximum release - spontaneous release)
and expressed as the mean of triplicate assays ± standard error of the mean.

[4] = Toxicity to KHYG-1 NK cells (Trypan blue exclusion); details: human
Description: as §6
The toxicity assay was carried out in exactly the same manner as the killing assay above, but instead of adding the labelled K562 target cells, 100 μL of RPMI 0.1% BSA was added. Cells were incubated for 4 h at 37 °C and then washed ×3 in RPMI + 0.1% BSA. Cells were then re-suspended in 200 μL of complete medium and incubated for 18−24 h at 37 °C. Trypan blue was added to each well. Viable (clear) cells and total (clear + blue) cells were counted, and the percentage of viable cells was calculated compared to DMSO treated cell control (% viability).

recombinant perforin = molecular target: T1, recombinant perforin (Mus musculus, UniProt P10820); parameters: method as in PMID 22244072; details: 2 vs HTS hit 1; cited from earlier work
T1 sequence (P10820 21-554): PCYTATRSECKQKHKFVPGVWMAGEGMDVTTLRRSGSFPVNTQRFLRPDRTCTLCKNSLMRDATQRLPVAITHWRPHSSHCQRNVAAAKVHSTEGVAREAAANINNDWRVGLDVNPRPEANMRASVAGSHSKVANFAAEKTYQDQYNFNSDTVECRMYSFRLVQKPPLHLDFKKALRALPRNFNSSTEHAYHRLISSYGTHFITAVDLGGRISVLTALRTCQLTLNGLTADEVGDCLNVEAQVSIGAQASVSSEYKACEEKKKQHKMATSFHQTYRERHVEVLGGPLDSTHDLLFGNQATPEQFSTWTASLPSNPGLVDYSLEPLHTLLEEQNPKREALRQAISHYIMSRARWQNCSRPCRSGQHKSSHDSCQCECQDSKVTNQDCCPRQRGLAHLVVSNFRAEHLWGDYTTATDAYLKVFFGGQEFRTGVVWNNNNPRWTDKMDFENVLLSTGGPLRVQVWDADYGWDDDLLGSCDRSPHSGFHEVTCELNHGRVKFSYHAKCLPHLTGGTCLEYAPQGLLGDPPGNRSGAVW

[5] = perforin-induced lysis of K562 target cells co-incubated with KHYG-1 human NK cells, vs untreated control

Row | Structure (SMILES) | Inhibition of perforin-mediated lysis of SRBC (in words) (perforin) | Plasma stability (% at 24 h) Mouse [1] [%] | Plasma stability (% at 24 h) Human [2] [%] | solubility (Solubility in water) [µg/mL] | inhibition at 20 µM [3, 5] [%] | Activity against perforin delivered by whole KHYG-1 NK cells (in words) [3] | viability at 24 h, 20 µM [4] [%] | Fold improvement in inhibition of isolated perforin protein function over 1 (recombinant perforin) [fold] | KHYG-1 inhibition (% at 20 μM) ([3]; compound 20 μM, perforin-induced lysis of K562 target cells co-incubated with KHYG-1 human NK cells, vs untreated control, 20 µM) [%]
1 | O=C1NC(=S)N/C1=C/c1ccc(-c2ccc3c(c2)COC3=O)o1 [Compound 1] | reproducibly inhibit |  |  |  |  |  |  |  | 
2 | NC(=O)c1ccc(-c2ccc(-c3ccc4c(c3)COC4=O)s2)cc1O [Compound 48] |  | 75 | 49 | 0.023 (≈ 0.0655 µM) | 20 | poor or no activity | 92 |  | 
3 | NC(=O)c1ccc(-c2ccc(-c3ccc4c(c3)COC4=O)s2)cn1 [Compound 67] |  | 66 | 39 | 0.204 (≈ 0.606 µM) | 80 | excellent activity | 82 |  | 
4 | O=C1NC(=S)N/C1=C/c1ccc(-c2ccc3c(c2)COC3=O)s1 [Compound 2] |  |  |  |  |  |  |  | ~8 | 
5 | NC(=O)c1ccc(-c2ccc(-c3ccc4c(c3)COC4=O)s2)cc1 [Compound 23] |  | 75 | 46 |  | 60 | excellent activity | 90 |  | 63

From PMC4706532, “Diarylthiophenes as inhibitors of the pore-forming protein perforin” (Bioorganic & Medicinal Chemistry Letters, 2016)
